What was measured:
[1] = TEASE-1 safety, adverse events
[2] = system: asymptomatic Stargardt disease patients; assay: TEASE-3 photoreceptor loss (ellipsoid zone band loss) by optical coherence tomography; type: in vivo, human
Method: FIG. 5 is a graph showing retinal photoreceptor loss over time in three asymptomatic Stargardt disease patients taking gildeuretinol acetate 14 mg daily. Lines are piecewise linear regressions with a knot time of 6 months and show the mean area of retinal photoreceptor loss of both eyes. Each symbol represents the area of photoreceptor loss for one eye. To measure photoreceptor loss, the ellipsoid zone layer was evaluated on b-scans acquired on Heidelberg engineering optical coherence tomography (Heidelberg, Germany).
(§1) The tolerability and effects of ALK-001 (gildeuretinol acetate) in Stargardt Disease (Clinical trial group 3, also known as TEASE-3) study was an open-label, multicenter, case control study designed to evaluate the efficacy and safety of gildeuretinol acetate on the progression of Stargardt disease in asymptomatic individuals. The trial was conducted at multiple sites in the United States.
Patients received gildeuretinol acetate 14 mg capsules, to be taken orally once daily. Trial visits occurred every 6 months approximately following screening and treatment start visits.
Disease progression was monitored by best-corrected visual acuity (BCVA) reported in number of Early Treatment Diabetic Retinopathy Study (ETDRS) letters, fundus autofluorescence (FAF) imaging, loss of photoreceptors (as measured by the ellipsoid zone band loss) by optical coherence tomography (OCT) and retinal sensitivity by microperimetry.
Measurements from the left and right eye for each patient were averaged for each visit to produce a single statistical unit for both eyes. For segmented linear regressions, knot times were selected so that three visits were included in the first segment.

[3] = system: asymptomatic Stargardt disease patients; assay: TEASE-3 retinal sensitivity by fundus-tracking microperimetry; type: in vivo, human
Method: FIG. 4 is a graph showing mean retinal sensitivity (dB) over time in three asymptomatic Stargardt disease patients taking gildeuretinol acetate 14 mg daily. Lines show mean retinal sensitivity of both eyes. Lines are piecewise linear regressions with a knot time of 12 months. Each symbol represents a retinal sensitivity measurement for each eye. Patient 1 retinal sensitivity was measured with a Nidek MP-1 (Nidek, Gamagori, Japan). Patients 2 and 3 retinal sensitivity was measured with the Center Vue Macular Integrity Assessment or MAIA (CenterVue, Padova, Italy).
as §1
Patients received gildeuretinol acetate 14 mg capsules, to be taken orally once daily. […]
Disease progression was monitored by best-corrected visual acuity (BCVA) reported in number of Early Treatment Diabetic Retinopathy Study (ETDRS) letters, fundus autofluorescence (FAF) imaging, loss of photoreceptors (as measured by the ellipsoid zone band loss) by optical coherence tomography (OCT) and retinal sensitivity by microperimetry. […]

[2H]C([2H])([2H])C(/C=C/C=C(C)/C=C/C1=C(C)CCCC1(C)C)=C\COC(C)=O [gildeuretinol acetate]
Patients experiencing event (%): Death ([1]; 14 mg (N = 15)): 1 (6.7)
Patients experiencing event (%): Influenza ([1]; 14 mg (N = 15)): 0
Patients experiencing event (%): Vulvovaginal candidiasis ([1]; 14 mg (N = 15)): 0
Patients experiencing event (%): Wrist fracture ([1]; 14 mg (N = 15)): 0
Patients experiencing event (%): Xanthelasma ([1]; 14 mg (N = 15)): 0
Patients experiencing event (%): Death ([1]; 24 mg (N = 15)): 0
Patients experiencing event (%): Influenza ([1]; 24 mg (N = 15)): 1 (6.7)
Patients experiencing event (%): Vulvovaginal candidiasis ([1]; 24 mg (N = 15)): 1 (6.7)
Patients experiencing event (%): Wrist fracture ([1]; 24 mg (N = 15)): 0
Patients experiencing event (%): Xanthelasma ([1]; 24 mg (N = 15)): 1 (6.7)
Patients experiencing event (%): Abdominal discomfort ([1]; Crossover (N = 10)): 1 (10.0)
Patients experiencing event (%): Abdominal distension ([1]; Crossover (N = 10)): 0
Patients experiencing event (%): Abdominal pain upper ([1]; Crossover (N = 10)): 0
Patients experiencing event (%): Abnormal dreams ([1]; Crossover (N = 10)): 0
Patients experiencing event (%): Alanine aminotransferase increased ([1]; Crossover (N = 10)): 1 (10.0)
Patients experiencing event (%): Alopecia ([1]; Crossover (N = 10)): 0
Patients experiencing event (%): Ankle fracture ([1]; Crossover (N = 10)): 0
Patients experiencing event (%): Arthralgia ([1]; Crossover (N = 10)): 1 (10.0)
Patients experiencing event (%): Arthritis ([1]; Crossover (N = 10)): 1 (10.0)
Patients experiencing event (%): Aspartate aminotransferase increased ([1]; Crossover (N = 10)): 1 (10.0)
Patients experiencing event (%): Back injury ([1]; Crossover (N = 10)): 0
Patients experiencing event (%): Back pain ([1]; Crossover (N = 10)): 0
Patients experiencing event (%): Blepharospasm ([1]; Crossover (N = 10)): 1 (10.0)
Patients experiencing event (%): Blood cholesterol increased ([1]; Crossover (N = 10)): 0
Patients experiencing event (%): Blood creatinine increased ([1]; Crossover (N = 10)): 0
Patients experiencing event (%): Blood iron decreased ([1]; Crossover (N = 10)): 0
Patients experiencing event (%): Blood pressure increased ([1]; Crossover (N = 10)): 0
Patients experiencing event (%): Blood triglycerides increased ([1]; Crossover (N = 10)): 0
Patients experiencing event (%): Bowel movement irregularity ([1]; Crossover (N = 10)): 0
Patients experiencing event (%): Bronchitis ([1]; Crossover (N = 10)): 0
Patients experiencing event (%): Cartilage injury ([1]; Crossover (N = 10)): 0
Patients experiencing event (%): Conjunctival laceration ([1]; Crossover (N = 10)): 0
Patients experiencing event (%): Conjunctivitis ([1]; Crossover (N = 10)): 0
Patients experiencing event (%): Constipation ([1]; Crossover (N = 10)): 0
Patients experiencing event (%): Cough ([1]; Crossover (N = 10)): 0
Patients experiencing event (%): Death ([1]; Crossover (N = 10)): 0
Patients experiencing event (%): Depression ([1]; Crossover (N = 10)): 0
Patients experiencing event (%): Diarrhoea ([1]; Crossover (N = 10)): 1 (10.0)
Patients experiencing event (%): Diplopia ([1]; Crossover (N = 10)): 0
Patients experiencing event (%): Dry eye ([1]; Crossover (N = 10)): 0
Patients experiencing event (%): Dry mouth ([1]; Crossover (N = 10)): 0
Patients experiencing event (%): Dry skin ([1]; Crossover (N = 10)): 0
Patients experiencing event (%): Ear discomfort ([1]; Crossover (N = 10)): 0
Patients experiencing event (%): Ear pain ([1]; Crossover (N = 10)): 0
Patients experiencing event (%): Eczema ([1]; Crossover (N = 10)): 1 (10.0)
Patients experiencing event (%): Electrocardiogram abnormal ([1]; Crossover (N = 10)): 1 (10.0)
Patients experiencing event (%): Erythema ([1]; Crossover (N = 10)): 0
Patients experiencing event (%): Eye irritation ([1]; Crossover (N = 10)): 0
Patients experiencing event (%): Eye pain ([1]; Crossover (N = 10)): 0
Patients experiencing event (%): Eye pruritus ([1]; Crossover (N = 10)): 0
Patients experiencing event (%): Face injury ([1]; Crossover (N = 10)): 0
Patients experiencing event (%): Faeces soft ([1]; Crossover (N = 10)): 0
Patients experiencing event (%): Fall ([1]; Crossover (N = 10)): 0
Patients experiencing event (%): Gastroenteritis ([1]; Crossover (N = 10)): 1 (10.0)
Patients experiencing event (%): Hair texture abnormal ([1]; Crossover (N = 10)): 0
Patients experiencing event (%): Hand fracture ([1]; Crossover (N = 10)): 0
Patients experiencing event (%): Headache ([1]; Crossover (N = 10)): 0
Patients experiencing event (%): Hordeolum ([1]; Crossover (N = 10)): 0
Patients experiencing event (%): Hypertension ([1]; Crossover (N = 10)): 0
Patients experiencing event (%): Hypobarism ([1]; Crossover (N = 10)): 0
Patients experiencing event (%): Hypothyroidism ([1]; Crossover (N = 10)): 0
Patients experiencing event (%): Hysterectomy ([1]; Crossover (N = 10)): 0
Patients experiencing event (%): Inflammation ([1]; Crossover (N = 10)): 0
Patients experiencing event (%): Influenza ([1]; Crossover (N = 10)): 0
Patients experiencing event (%): Insomnia ([1]; Crossover (N = 10)): 0
Patients experiencing event (%): Intracranial pressure increased ([1]; Crossover (N = 10)): 0
Patients experiencing event (%): Irritability ([1]; Crossover (N = 10)): 0
Patients experiencing event (%): Jaw operation ([1]; Crossover (N = 10)): 0
Patients experiencing event (%): Knee arthroplasty ([1]; Crossover (N = 10)): 0
Patients experiencing event (%): Laryngitis ([1]; Crossover (N = 10)): 0
Patients experiencing event (%): Lip swelling ([1]; Crossover (N = 10)): 0
Patients experiencing event (%): Low density lipoprotein increased ([1]; Crossover (N = 10)): 0
Patients experiencing event (%): Muscle spasms ([1]; Crossover (N = 10)): 0
Patients experiencing event (%): Muscle strain ([1]; Crossover (N = 10)): 0
Patients experiencing event (%): Musculoskeletal pain ([1]; Crossover (N = 10)): 0
Patients experiencing event (%): Nasopharyngitis ([1]; Crossover (N = 10)): 1 (10.0)
Patients experiencing event (%): Nausea ([1]; Crossover (N = 10)): 0
Patients experiencing event (%): Neck pain ([1]; Crossover (N = 10)): 0
Patients experiencing event (%): Nephrolithiasis ([1]; Crossover (N = 10)): 1 (10.0)
Patients experiencing event (%): Nerve compression ([1]; Crossover (N = 10)): 0
Patients experiencing event (%): Neuralgia ([1]; Crossover (N = 10)): 0
Patients experiencing event (%): Obsessive-compulsive disorder ([1]; Crossover (N = 10)): 0
Patients experiencing event (%): Oropharyngeal pain ([1]; Crossover (N = 10)): 1 (10.0)
Patients experiencing event (%): Osteoporosis ([1]; Crossover (N = 10)): 0
Patients experiencing event (%): Overall ([1]; Crossover (N = 10)): 8 (80)
Patients experiencing event (%): Pain ([1]; Crossover (N = 10)): 0
Patients experiencing event (%): Pain in extremity ([1]; Crossover (N = 10)): 0
Patients experiencing event (%): Pain in jaw ([1]; Crossover (N = 10)): 0
Patients experiencing event (%): Peripheral coldness ([1]; Crossover (N = 10)): 0
Patients experiencing event (%): Pharyngitis streptococcal ([1]; Crossover (N = 10)): 0
Patients experiencing event (%): Photophobia ([1]; Crossover (N = 10)): 0
Patients experiencing event (%): Photopsia ([1]; Crossover (N = 10)): 0
Patients experiencing event (%): Plantar fasciitis ([1]; Crossover (N = 10)): 0
Patients experiencing event (%): Pleurisy ([1]; Crossover (N = 10)): 1 (10.0)
Patients experiencing event (%): Pneumonia ([1]; Crossover (N = 10)): 1 (10.0)
Patients experiencing event (%): Premenstrual syndrome ([1]; Crossover (N = 10)): 0
Patients experiencing event (%): Punctate keratitis ([1]; Crossover (N = 10)): 0
Patients experiencing event (%): Pyrexia ([1]; Crossover (N = 10)): 0
Patients experiencing event (%): Radius fracture ([1]; Crossover (N = 10)): 0
Patients experiencing event (%): Rash ([1]; Crossover (N = 10)): 1 (10.0)
Patients experiencing event (%): Rotator cuff syndrome ([1]; Crossover (N = 10)): 0
Patients experiencing event (%): Sialoadenitis ([1]; Crossover (N = 10)): 0
Patients experiencing event (%): Sinus congestion ([1]; Crossover (N = 10)): 0
Patients experiencing event (%): Sinusitis ([1]; Crossover (N = 10)): 0
Patients experiencing event (%): Sjogren's syndrome ([1]; Crossover (N = 10)): 0
Patients experiencing event (%): Subdural haematoma ([1]; Crossover (N = 10)): 0
Patients experiencing event (%): Syncope ([1]; Crossover (N = 10)): 0
Patients experiencing event (%): Tendonitis ([1]; Crossover (N = 10)): 0
Patients experiencing event (%): Thoracic outlet syndrome ([1]; Crossover (N = 10)): 0
Patients experiencing event (%): Tongue dry ([1]; Crossover (N = 10)): 0
Patients experiencing event (%): Tooth abscess ([1]; Crossover (N = 10)): 0
Patients experiencing event (%): Tooth extraction ([1]; Crossover (N = 10)): 0
Patients experiencing event (%): Toothache ([1]; Crossover (N = 10)): 0
Patients experiencing event (%): Vision blurred ([1]; Crossover (N = 10)): 1 (10.0)
Patients experiencing event (%): Visual field defect ([1]; Crossover (N = 10)): 1 (10.0)
Patients experiencing event (%): Visual impairment ([1]; Crossover (N = 10)): 0
Patients experiencing event (%): Vitamin B12 deficiency ([1]; Crossover (N = 10)): 0
Patients experiencing event (%): Vitamin D decreased ([1]; Crossover (N = 10)): 0
Patients experiencing event (%): Vitreous floaters ([1]; Crossover (N = 10)): 1 (10.0)
Patients experiencing event (%): Vulvovaginal candidiasis ([1]; Crossover (N = 10)): 0
Patients experiencing event (%): Wrist fracture ([1]; Crossover (N = 10)): 0
Patients experiencing event (%): Xanthelasma ([1]; Crossover (N = 10)): 0
association between treatment groups and frequency of adverse events ([1]; in vivo): no association was observed
changes by physical examination, electrocardiogram, vital signs, hematology, biochemistry and lipid panels ([1]; in vivo): no changes were attributed to gildeuretinol acetate
progression of photoreceptor loss ([2]; first six months of treatment, average of two treated patients): approximately 0.18 mm^2/year
photoreceptor loss trend ([2]; following years of treatment): trended toward an improvement
photoreceptor loss, third patient ([2]; full treatment period): no photoreceptors were lost
average area of photoreceptor loss ([2]; in vivo): 0.36±0.32 mm^2
average area of photoreceptor loss as share of the foveal area ([2]; in vivo): 20%
change of mean retinal sensitivity ([3]; first year of treatment): −3.1±1.5 dB/year
average rate of retinal sensitivity improvement ([3]; following years of treatment): +0.93±0.7 dB/year
